What all share (format): functional
In experiment [1] the test system is Mycobacterium tuberculosis. The experiment can be described thus: Antitubercular activity against moxifloxacin-resistant Mycobacterium tuberculosis H37Rv ATCC 27294 assessed as growth inhibition after 16 to 24 hrs by microplate-Alamar Blue assay.
The test system of experiment [2] is Mycobacterium tuberculosis. The experiment can be described thus: Antitubercular activity against isoniazid-resistant Mycobacterium tuberculosis H37Rv ATCC 27294 assessed as growth inhibition after 16 to 24 hrs by microplate-Alamar Blue assay. For orientation: The colour change of resazurin is a common sign of viable cells or microbes.
Experiment [3] relates to Mycobacterium tuberculosis. The experiment can be described thus: Antitubercular activity against rifampin-resistant Mycobacterium tuberculosis H37Rv ATCC 27294 assessed as growth inhibition after 16 to 24 hrs by microplate-Alamar Blue assay.
Experiment [4] concerns Mycobacterium tuberculosis. The experiment can be described thus: Antitubercular activity against capreomycin-resistant Mycobacterium tuberculosis H37Rv ATCC 27294 assessed as growth inhibition after 16 to 24 hrs by microplate-Alamar Blue assay.

Converted amounts (≈) assume the structure as drawn.

Turning to `NNC(=O)c1ccncc1` [ISONIAZID], the MIC (in general, the lowest concentration that inhibits growth of the organism) in experiment [1] is 3.6 µM (≈ 0.494 µg/mL); in experiment [2], over 8 µM; in experiment [3], 0.85 µM (≈ 0.117 µg/mL); in experiment [4], 0.81 µM (≈ 0.111 µg/mL).
Regarding `Fc1ccc(C(F)(F)F)cc1-c1csc(Nc2cc(Cl)cc(Cl)c2)n1`, the MIC in experiment [1] was 12 µM (≈ 4.89 µg/mL); in experiment [2] it was 7.1 µM (≈ 2.89 µg/mL); in experiment [3] it was 9.7 µM (≈ 3.95 µg/mL); in experiment [4], 12 µM (≈ 4.89 µg/mL).
For `O=[N+]([O-])c1cn2c(n1)OC[C@@H](OCc1ccc(OC(F)(F)F)cc1)C2` [PRETOMANID], the MIC in experiment [1] is 0.88 µM (≈ 0.316 µg/mL); in experiment [2], 0.43 µM (≈ 0.154 µg/mL); in experiment [3], 0.51 µM (≈ 0.183 µg/mL); in experiment [4], 1.26 µM (≈ 0.453 µg/mL).
In the same order, the values of `Fc1ccc(C(F)(F)F)cc1-c1csc(Nc2ccc(Cl)cc2)n1` are 15.5 µM (≈ 5.78 µg/mL), 10.4 µM (≈ 3.88 µg/mL), 10.9 µM (≈ 4.06 µg/mL) and 17.4 µM (≈ 6.49 µg/mL).
For the compound `CO[C@H]1/C=C/O[C@@]2(C)Oc3c(C)c(O)c4c(O)c(c(/C=N/N5CCN(C)CC5)c(O)c4c3C2=O)NC(=O)/C(C)=C\C=C\[C@H](C)[C@H](O)[C@@H](C)[C@@H](O)[C@@H](C)[C@H](OC(C)=O)[C@@H]1C` [RIFAMPIN], the MIC was 0.14 µM (≈ 0.115 µg/mL) in experiment [1], 0.06 µM (≈ 0.0494 µg/mL) in experiment [2], over 4 µM in experiment [3] and 0.05 µM (≈ 0.0411 µg/mL) in experiment [4].
